From the supplement of paper PMC11208160

Assay: recombinant UMI read abundance after kanamycin selection (control-corrected) (log10(CPM+1)); higher = more efficient recombination; extreme values may be limits of the assay; sequences stand for … in AGTGCAGAGAAAATCGGCCAGTTTTCTCTGCCTGCAGTCCGCATGCCGTGGGACCCCTTGGGTTCTAACCTGTTGCCTAGATTTATGCAGCGGACTGCCTTTCTCCCAAAGTGATAAACCGG…AGGTTGGTTTCACT; site = the 11-nt donor
Description: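 Pooled E. coli donor-specificity screen for the IS621 bridge recombinase. Each library member carries a reprogrammed 11-nt donor and a full-length LE bridge RNA expressed in cis from the natural promoter, with a paired donor-binding loop (8-nt LDG + 4-nt RDG) and a target-binding loop fixed to T5. It is co-electroporated with a T5 target plasmid; recombinase is induced with 0.07 mM IPTG and recombinants are selected on kanamycin. UMIs are counted as CPM, averaged over two biological replicates and corrected by the unselected control. Molecule = full bridge RNA written as DNA, built from the T5 scaffold: LDG = donor specificity nt 1-8, RDG = reverse complement of nt 8-11.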

Point of comparison: “CTGGTATCATGGACCGGTTTTCCCGGTAATCCGTATTTGAC (site CTCGTATCTGT)”, “recombinant UMI read abundance (log10)” value 0. Against it:
- CTAATTACATGGACCGGTTTTCCCGGTAATCCGTATTTGTG (site CTAATTACTCA) — higher, 0.859
- AGGAAATCATGGACCGGTTTTCCCGGTAATCCGTATTTGCA (site AGGAAGACTTG) — the same, 0
- TACATAGCATGGACCGGTTTTCCCGGTAATCCGTATTTGGG (site TACATAGCTCC) — within 0.2 log units, 0.013
- AATCTAACATGGACCGGTTTTCCCGGTAATCCGTATTTGCT (site AATATAACTAG) — the same, 0
- ATGGAAACATGGACCGGTTTTCCCGGTAATCCGTATTTGCA (site ATGGAAACTTG) — higher, 2.32
- CTTGCGGCATGGACCGGTTTTCCCGGTAATCCGTATTTGCT (site ATTGCGGCTAG) — within 0.2 log units, 0.00273
- CCTCTTGCATGGACCGGTTTTCCCGGTAATCCGTATTTGAG (site CCTCTTGCTCT) — within 0.2 log units, 0.0146
- TGAAAATCATGGACCGGTTTTCCCGGTAATCCGTATTTGTG (site TGAAAATCTCA) — higher, 1
- CGGAAGCCATGGACCGGTTTTCCCGGTAATCCGTATTTGTT (site CGGAACCCTAA) — within 0.2 log units, 0.00486
- AATGTGTCATGGACCGGTTTTCCCGGTAATCCGTATTTGAC (site AATGAGTCTGT) — the same, 0
- CTCTACCCATGGACCGGTTTTCCCGGTAATCCGTATTTGCT (site CTCTACACTAG) — higher, 0.274
- GGGGTTGCATGGACCGGTTTTCCCGGTAATCCGTATTTGCG (site GGGGTTGCTCG) — higher, 1.75
- GAAGATTCATGGACCGGTTTTCCCGGTAATCCGTATTTGTT (site GAAGATACTAA) — higher, 0.46
- ACAGTATCATGGACCGGTTTTCCCGGTAATCCGTATTTGCA (site ACATTATCTTT) — within 0.2 log units, 0.0113
- GCTGTTCCATGGACCGGTTTTCCCGGTAATCCGTATTTGGT (site GATGTTCCTAC) — within 0.2 log units, 0.0117
- CATGTCACATGGACCGGTTTTCCCGGTAATCCGTATTTGGG (site CACGTCACTCC) — within 0.2 log units, 0.0251
- GGTGTGGCATGGACCGGTTTTCCCGGTAATCCGTATTTGGT (site GGGGTGGCTAC) — within 0.2 log units, 0.145
- CTATCCTCATGGACCGGTTTTCCCGGTAATCCGTATTTGTT (site CTATCCTCTAA) — higher, 2.79
- GCGAAGCCATGGACCGGTTTTCCCGGTAATCCGTATTTGGT (site GCGAAGCCTCC) — within 0.2 log units, 0.00425
- CTGGAACCATGGACCGGTTTTCCCGGTAATCCGTATTTGAT (site CAGGAACCTAT) — the same, 0
- GAATTCCCATGGACCGGTTTTCCCGGTAATCCGTATTTGCT (site GAATTCCCTAG) — higher, 0.671
- CCGAAGCCATGGACCGGTTTTCCCGGTAATCCGTATTTGGG (site ACGAAGCCTCC) — within 0.2 log units, 0.0168
- CCTAATACATGGACCGGTTTTCCCGGTAATCCGTATTTGAC (site CCTAATACTGC) — the same, 0
- AGTCTAGCATGGACCGGTTTTCCCGGTAATCCGTATTTGTT (site AGCCTAGCTAA) — within 0.2 log units, 0.0159
- AGCCTAGCATGGACCGGTTTTCCCGGTAATCCGTATTTGTT (site AGCCAAGCTAA) — within 0.2 log units, 0.0196
- CTAATAACATGGACCGGTTTTCCCGGTAATCCGTATTTGGA (site CTATTAACTTC) — higher, 1.14
- AACGATCCATGGACCGGTTTTCCCGGTAATCCGTATTTGGC (site AACGATCCTGC) — higher, 1.07
- TAGAGTACATGGACCGGTTTTCCCGGTAATCCGTATTTGCA (site TAGATTACTTG) — the same, 0
- GATTGGACATGGACCGGTTTTCCCGGTAATCCGTATTTGAC (site GATTGGACTGC) — the same, 0
- TACTCCTCATGGACCGGTTTTCCCGGTAATCCGTATTTGCC (site CACTCCTCTGG) — higher, 1.86
- GTGAAACCATGGACCGGTTTTCCCGGTAATCCGTATTTGAT (site GTGAAACCTAT) — the same, 0
- TAGCTATCATGGACCGGTTTTCCCGGTAATCCGTATTTGAA (site TAGCTAGCTTT) — within 0.2 log units, 0.00959
- CTACTATCATGGACCGGTTTTCCCGGTAATCCGTATTTGAA (site CTACTATCTTT) — higher, 2.45
- AATGTAACATGGACCGGTTTTCCCGGTAATCCGTATTTGCT (site AATTTAACTAG) — higher, 0.682
- TCGGGCGCATGGACCGGTTTTCCCGGTAATCCGTATTTGTC (site TCGGGCGCTGA) — higher, 2.19
- CATTGTACATGGACCGGTTTTCCCGGTAATCCGTATTTGGG (site CATTGTACTCC) — within 0.2 log units, 0.0267
- TAAAGTCCATGGACCGGTTTTCCCGGTAATCCGTATTTGAA (site TAAAGTCCTTT) — higher, 0.775
- CCGTTTACATGGACCGGTTTTCCCGGTAATCCGTATTTGCT (site CCGTTTACTTG) — the same, 0
- GCGAAGCCATGGACCGGTTTTCCCGGTAATCCGTATTTGGT (site GCGAAGCCTTC) — higher, 0.234
- TTAGCTGCATGGACCGGTTTTCCCGGTAATCCGTATTTGTC (site TTAGCTGCTGA) — higher, 2.26
- TATGGTACATGGACCGGTTTTCCCGGTAATCCGTATTTGGC (site TATGGTACTGC) — higher, 1.67
- AAGGTCACATGGACCGGTTTTCCCGGTAATCCGTATTTGAG (site AAGGTCACTCT) — higher, 1.55
- GTAGTCGCATGGACCGGTTTTCCCGGTAATCCGTATTTGCG (site CTAGTCGCTCG) — within 0.2 log units, 0.145
- CTCCCGACATGGACCGGTTTTCCCGGTAATCCGTATTTGAG (site CTCCCGACTCT) — higher, 0.968
- CTCGTATCATGGACCGGTTTTCCCGGTAATCCGTATTTGAG (site CTAGTATCTGT) — the same, 0
- CGGAATCCATGGACCGGTTTTCCCGGTAATCCGTATTTGCT (site CGGAATCCTAA) — within 0.2 log units, 0.106
- CCCTTCTCATGGACCGGTTTTCCCGGTAATCCGTATTTGGG (site CCCATCTCTCC) — within 0.2 log units, 0.0128
- TGGCGGACATGGACCGGTTTTCCCGGTAATCCGTATTTGCA (site TGGCGGACTTG) — higher, 1.67
- CTAGAAACATGGACCGGTTTTCCCGGTAATCCGTATTTGCA (site CTCGAAACTTG) — the same, 0
- ACAGTATCATGGACCGGTTTTCCCGGTAATCCGTATTTGCA (site ACTGTATCTGG) — within 0.2 log units, 0.00893
- AGGAGTGCATGGACCGGTTTTCCCGGTAATCCGTATTTGAG (site AGGAGTGCTCT) — higher, 2.37
- CAGGCGACATGGACCGGTTTTCCCGGTAATCCGTATTTGGG (site CAGCCGACTCC) — within 0.2 log units, 0.0323
- ACTAAACCATGGACCGGTTTTCCCGGTAATCCGTATTTGCG (site ACTAAACCTCG) — the same, 0
- ACTCGCACATGGACCGGTTTTCCCGGTAATCCGTATTTGAC (site ACTCGCACTGT) — higher, 2.68
- GTAGGTACATGGACCGGTTTTCCCGGTAATCCGTATTTGGC (site GTAGGTACTGA) — higher, 1.79
- TGCACTGCATGGACCGGTTTTCCCGGTAATCCGTATTTGCA (site TGCACTGCTTG) — within 0.2 log units, 0.198
